Results from patent US12540129B2, “KIF18A inhibitors” (AMGEN INC., priority 2019, dated 2026).

Target: T1, Recombinant human KIF18A (1-467 His-tagged) protein (Homo sapiens, UniProt Q8NI77)
T1 construct: Recombinant human KIF18A (1-467 His-tagged) protein; His; made in house
Test: KIF18A Enzyme Assay: microtubule-stimulated ATPase activity (ADP-Glo)
Type: biochemical
Details: 30 nM KIF18A, 75 μM ATP
Excerpt: KIF18A Enzyme Assay: Microtubule-stimulated ATPase activity assay is used to measure KIF18A enzyme activity after treatment with compound. Compounds were 2-fold serially diluted in DMSO (Sigma Inc) over 22-point concentration range. Recombinant human KIF18A (1-467 His-tagged) protein was expressed using a baculovirus system and purified by affinity chromatography by Amgen Inc. Concentrations of KIF18A protein, microtubules (MT), and ATP in the reaction were optimized for standardized homogenous enzyme assay using ADP-Glorm Kinase/ATPase Assay Kit (Promega Inc). The assay measures ADP formed from the ATPase reaction. […] Read luminescence using EnVision microplate reader with ultra-luminescence module (Perkin Elmer Inc). Concentration-response curve-fitting and IC50 determination was performed using Genedata Screener Software (Standard 15.0.1, Genedata Inc) with a four-parameter logistic regression fit model.
Table A provides data for compounds exemplified in the present application and priority document thereof, as representative compounds of the present invention, as follows: chemical name (as named by either ACD software or ChemDraw (Professional 15.0)) and biological data (IC50 in μM). Ex. # refers to Example No.

T1 sequence (Q8NI77 1-467): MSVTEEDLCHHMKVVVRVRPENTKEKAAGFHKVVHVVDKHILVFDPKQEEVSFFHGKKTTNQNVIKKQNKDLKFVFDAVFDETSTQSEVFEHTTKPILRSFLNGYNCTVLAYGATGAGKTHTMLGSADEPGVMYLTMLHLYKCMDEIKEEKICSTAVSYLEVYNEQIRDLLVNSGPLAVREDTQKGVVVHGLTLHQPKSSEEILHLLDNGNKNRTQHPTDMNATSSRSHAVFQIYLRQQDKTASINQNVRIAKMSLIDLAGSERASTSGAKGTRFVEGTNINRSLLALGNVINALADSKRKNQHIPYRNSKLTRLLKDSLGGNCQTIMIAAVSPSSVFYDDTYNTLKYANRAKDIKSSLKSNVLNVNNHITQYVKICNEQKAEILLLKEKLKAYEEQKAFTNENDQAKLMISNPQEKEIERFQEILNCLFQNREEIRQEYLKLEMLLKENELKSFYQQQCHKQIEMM
T1 sequence (P02550 whole entry partner): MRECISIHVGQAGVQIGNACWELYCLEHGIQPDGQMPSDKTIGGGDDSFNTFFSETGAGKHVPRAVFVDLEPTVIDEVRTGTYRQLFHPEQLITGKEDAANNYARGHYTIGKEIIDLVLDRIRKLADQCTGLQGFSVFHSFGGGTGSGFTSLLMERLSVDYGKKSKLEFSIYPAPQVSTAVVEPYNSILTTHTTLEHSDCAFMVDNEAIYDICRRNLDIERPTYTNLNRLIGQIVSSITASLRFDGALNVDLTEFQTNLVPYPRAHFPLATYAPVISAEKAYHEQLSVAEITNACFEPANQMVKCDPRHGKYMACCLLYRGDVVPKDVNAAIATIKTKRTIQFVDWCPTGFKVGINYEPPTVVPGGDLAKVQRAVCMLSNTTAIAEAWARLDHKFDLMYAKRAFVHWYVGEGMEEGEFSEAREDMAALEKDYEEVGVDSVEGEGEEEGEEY
T1 sequence (P02554 whole entry partner): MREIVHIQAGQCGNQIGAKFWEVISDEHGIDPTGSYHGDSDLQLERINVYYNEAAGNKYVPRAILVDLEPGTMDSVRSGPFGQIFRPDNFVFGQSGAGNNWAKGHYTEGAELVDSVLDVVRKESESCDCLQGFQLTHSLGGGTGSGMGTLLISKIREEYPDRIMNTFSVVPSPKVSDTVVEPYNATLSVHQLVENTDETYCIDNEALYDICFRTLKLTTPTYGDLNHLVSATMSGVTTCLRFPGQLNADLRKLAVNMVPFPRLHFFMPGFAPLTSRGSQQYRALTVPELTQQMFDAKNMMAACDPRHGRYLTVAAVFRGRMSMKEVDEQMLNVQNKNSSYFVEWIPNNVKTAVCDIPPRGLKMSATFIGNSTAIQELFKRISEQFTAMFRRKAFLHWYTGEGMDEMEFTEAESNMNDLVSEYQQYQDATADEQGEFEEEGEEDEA

| SMILES | IC50 |
| --- | --- |
| CC(C)(CF)NS(=O)(=O)c1cccc(NC(=O)c2cccnc2N2CCC3(CC2)CC3)c1 [Example 101-8, N-(3-(N-(1-fluoro-2-methylpropan-2-yl)sulfamoyl)phenyl)-2-(6-azaspiro[2.5]octan-6-yl)nicotinamide] | 279 nM |
| O=C(Nc1cccc(S(=O)(=O)NC2CC(F)(F)C2)c1)c1cccnc1N1CCC2(CC1)CC2 [Example 101-9, N-(3-(N-(3,3-difluorocyclobutyl)sulfamoyl)phenyl)-2-(6-azaspiro[2.5]octan-6-yl)nicotinamide] | 474 nM |
| O=C(Nc1cccc(S(=O)(=O)Nc2ccc(F)cc2)c1)c1cccnc1N1CCC2(CC1)CC2 [Example 101-10, N-(3-(N-(4-fluorophenyl)sulfamoyl)phenyl)-2-(6-azaspiro[2.5]octan-6-yl)nicotinamide] | 393 nM |
| CC1(C)CCN(c2ccc(C(=O)Nc3cccc(S(=O)(=O)NC(C)(C)C)c3)c(N3CCC4(CC3)CC4)n2)C1 [Example 102-1, N-(3-(N-(tert-butyl)sulfamoyl)phenyl)-6-(3,3-dimethylpyrrolidin-1-yl)-2-(6-azaspiro[2.5]octan-6-yl)nicotinamide] | 196 nM |
| CC(C)(C)NS(=O)(=O)c1cccc(NC(=O)c2ccc(N3CCC(F)(F)C3)nc2N2CCC3(CC2)CC3)c1 [Example 102-2, N-(3-(N-(tert-butyl)sulfamoyl)phenyl)-6-(3,3-difluoropyrrolidin-1-yl)-2-(6-azaspiro[2.5]octan-6-yl)nicotinamide] | 302 nM |
| CC(C)(C)NS(=O)(=O)c1cccc(NC(=O)c2ccc(N3CCCC3(C)C)nc2N2CCC3(CC2)CC3)c1 [Example 102-3, N-(3-(N-(tert-butyl)sulfamoyl)phenyl)-6-(2,2-dimethylpyrrolidin-1-yl)-2-(6-azaspiro[2.5]octan-6-yl)nicotinamide] | 342 nM |
| CC(C)(C)NS(=O)(=O)c1cccc(NC(=O)c2ccc(N3CC[C@H](O)C3)nc2N2CCC3(CC2)CC3)c1 [Example 102-4, (S)-N-(3-(N-(tert-butyl)sulfamoyl)phenyl)-6-(3-hydroxypyrrolidin-1-yl)-2-(6-azaspiro[2.5]octan-6-yl)nicotinamide] | 234 nM |
| CC(C)(C)NS(=O)(=O)c1cccc(NC(=O)c2ccc(N3C[C@H]4C[C@H]4C3)nc2N2CCC3(CC2)CC3)c1 [Example 102-5] | 191 nM |
| CC(C)(C)NS(=O)(=O)c1cccc(NC(=O)c2ccc(N3CC[C@@H]4C[C@@H]43)nc2N2CCC3(CC2)CC3)c1 [Example 102-6, 6-((1S,5R)-2-azabicyclo[3.1.0]hexan-2-yl)-N-(3-(N-(tert-butyl)sulfamoyl)phenyl)-2-(6-azaspiro[2.5]octan-6-yl)nicotinamide] | 200 nM |
| CC(C)(C)NS(=O)(=O)c1cccc(NC(=O)c2ccc(N3CCOCC3)nc2N2CCC3(CC2)CC3)c1 [Example 102-7, N-(3-(N-(tert-butyl)sulfamoyl)phenyl)-6-morpholino-2-(6-azaspiro[2.5]octan-6-yl)nicotinamide] | 238 nM |
| COC1CN(c2ccc(C(=O)Nc3cccc(S(=O)(=O)NC(C)(C)C)c3)c(N3CCC4(CC3)CC4)n2)C1 [Example 102-12, N-(3-(N-(tert-butyl)sulfamoyl)phenyl)-6-(3-methoxyazetidin-1-yl)-2-(6-azaspiro[2.5]octan-6-yl)nicotinamide] | 591 nM |
| CC1(O)CN(c2ccc(C(=O)Nc3cccc(S(=O)(=O)NC(C)(C)C)c3)c(N3CCC4(CC3)CC4)n2)C1 [Example 102-13, N-(3-(N-(tert-butyl)sulfamoyl)phenyl)-6-(3-hydroxy-3-methylazetidin-1-yl)-2-(6-azaspiro[2.5]octan-6-yl)nicotinamide] | 196 nM |
| CC(C)(C)NS(=O)(=O)c1cccc(NC(=O)c2ccc(N3CC(O)(C(F)(F)F)C3)nc2N2CCC3(CC2)CC3)c1 [Example 102-14, N-(3-(N-(tert-butyl)sulfamoyl)phenyl)-6-(3-hydroxy-3-(trifluoromethyl)azetidin-1-yl)-2-(6-azaspiro[2.5]octan-6-yl)nicotinamide] | 280 nM |
| CC(C)(C)NS(=O)(=O)c1cccc(NC(=O)c2ccc(N3CC(S(C)(=O)=O)C3)nc2N2CCC3(CC2)CC3)c1 [Example 102-15, N-(3-(N-(tert-butyl)sulfamoyl)phenyl)-6-(3-(methylsulfonyl)azetidin-1-yl)-2-(6-azaspiro[2.5]octan-6-yl)nicotinamide] | 182 nM |
| CC(C)(C)NS(=O)(=O)c1cccc(NC(=O)c2ccc(NC3CCC3)nc2N2CCC3(CC2)CC3)c1 [Example 102-16, N-(3-(N-(tert-butyl)sulfamoyl)phenyl)-6-(cyclobutylamino)-2-(6-azaspiro[2.5]octan-6-yl)nicotinamide] | 221 nM |
| CC(C)(C)NS(=O)(=O)c1cccc(NC(=O)c2ccc(NC3CC(F)(F)C3)nc2N2CCC3(CC2)CC3)c1 [Example 102-17, N-(3-(N-(tert-butyl)sulfamoyl)phenyl)-6-((3,3-difluorocyclobutyl)amino)-2-(6-azaspiro[2.5]octan-6-yl)nicotinamide] | 294 nM |
| CC(C)(C)NS(=O)(=O)c1cccc(NC(=O)c2ccc(N[C@H]3CC[C@H](O)C3)nc2N2CCC3(CC2)CC3)c1 [Example 102-23, N-(3-(N-(tert-butyl)sulfamoyl)phenyl)-6-(((1S,3S)-3-hydroxycyclopentyl)amino)-2-(6-azaspiro[2.5]octan-6-yl)nicotinamide] | 185 nM |
| CC(C)(C)NS(=O)(=O)c1cccc(NC(=O)c2ccc(N[C@@H]3CCOC[C@H]3O)nc2N2CCC3(CC2)CC3)c1 [Example 102-24, N-(3-(N-(tert-butyl)sulfamoyl)phenyl)-6-(((3S,4R)-3-hydroxytetrahydro-2H-pyran-4-yl)amino)-2-(6-azaspiro[2.5]octan-6-yl)nicotinamide] | 259 nM |

Stronger by IC50, values ahead:

| IC50 | SMILES |
| --- | --- |
| 160 nM | CC(C)(C)NS(=O)(=O)c1cccc(NC(=O)c2ccc(N[C@H]3CCC[C@H]3O)nc2N2CCC3(CC2)CC3)c1 [Example 102-19, N-(3-(N-(tert-butyl)sulfamoyl)phenyl)-6-(((1S,2R)-2-hydroxycyclopentyl)amino)-2-(6-azaspiro[2.5]octan-6-yl)nicotinamide] |
| 159 nM | CC(C)(C)NS(=O)(=O)c1cccc(NC(=O)c2ccc(N3CC(C#N)C3)nc2N2CCC3(CC2)CC3)c1 [Example 102-11, N-(3-(N-(tert-butyl)sulfamoyl)phenyl)-6-(3-cyanoazetidin-1-yl)-2-(6-azaspiro[2.5]octan-6-yl)nicotinamide] |
| 134 nM | CC(C)(C)NS(=O)(=O)c1cccc(NC(=O)c2ccc(N[C@@H]3CCOC3)nc2N2CCC3(CC2)CC3)c1 [Example 102-21, (R)-N-(3-(N-(tert-butyl)sulfamoyl)phenyl)-2-(6-azaspiro[2.5]octan-6-yl)-6-((tetrahydrofuran-3-yl)amino)nicotinamide] |
| 127 nM | CC(C)(C)NS(=O)(=O)c1cccc(NC(=O)c2ccc(N3CC[C@H]4CC[C@@H]3O4)nc2N2CCC3(CC2)CC3)c1 [Example 102-9, 6-((1S,5R)-8-oxa-2-azabicyclo[3.2.1]octan-2-yl)-N-(3-(N-(tert-butyl)sulfamoyl)phenyl)-2-(6-azaspiro[2.5]octan-6-yl)nicotinamide] |
| 118 nM | CC(C)(C)NS(=O)(=O)c1cccc(NC(=O)c2ccc(N3CCC3)nc2N2CCC3(CC2)CC3)c1 [Example 102-10, 6-(azetidin-1-yl)-N-(3-(N-(tert-butyl)sulfamoyl)phenyl)-2-(6-azaspiro[2.5]octan-6-yl)nicotinamide] |
| 116 nM | CC(C)(C)NS(=O)(=O)c1cccc(NC(=O)c2ccc(N[C@@H]3CC[C@H](O)C3)nc2N2CCC3(CC2)CC3)c1 [Example 102-22, N-(3-(N-(tert-butyl)sulfamoyl)phenyl)-6-(((1R,3S)-3-hydroxycyclopentyl)amino)-2-(6-azaspiro[2.5]octan-6-yl)nicotinamide] |
| 107 nM | CC(C)(C)NS(=O)(=O)c1cccc(NC(=O)c2ccc(N[C@@H]3CCC[C@H]3O)nc2N2CCC3(CC2)CC3)c1 [Example 102-18, N-(3-(N-(tert-butyl)sulfamoyl)phenyl)-6-(((1R,2R)-2-hydroxycyclopentyl)amino)-2-(6-azaspiro[2.5]octan-6-yl)nicotinamide] |
| 104 nM | CC(C)(C)NS(=O)(=O)c1cccc(NC(=O)c2ccc(N3C[C@H]4C[C@@H]3CO4)nc2N2CCC3(CC2)CC3)c1 [Example 102-8, 6-((1R,4R)-2-oxa-5-azabicyclo[2.2.1]heptan-5-yl)-N-(3-(N-(tert-butyl)sulfamoyl)phenyl)-2-(6-azaspiro[2.5]octan-6-yl)nicotinamide] |
| 103 nM | CC(C)(C)NS(=O)(=O)c1cccc(NC(=O)c2ccc(N[C@H]3COC[C@@H]3O)nc2N2CCC3(CC2)CC3)c1 [Example 102-20, N-(3-(N-(tert-butyl)sulfamoyl)phenyl)-6-(((3S,4R)-4-hydroxytetrahydrofuran-3-yl)amino)-2-(6-azaspiro[2.5]octan-6-yl)nicotinamide] |
| 84 nM | CC(C)(C)NS(=O)(=O)c1cccc(NC(=O)c2ccc(NC3COC3)nc2N2CCC3(CC2)CC3)c1 [Example 102-25, N-(3-(N-(tert-butyl)sulfamoyl)phenyl)-6-(oxctan-3-ylamino)-2-(6-azaspiro[2.5]octan-6-yl)nicotinamide] |
| 56 nM | CC(C)(C)NS(=O)(=O)c1cccc(NC(=O)c2ccc(NC3(C)COC3)nc2N2CCC3(CC2)CC3)c1 [Example 102-26, N-(3-(N-(tert-butyl)sulfamoyl)phenyl)-6-((3-methyloxetan-3-yl)amino)-2-(6-azaspiro[2.5]octan-6-yl)nicotinamide] |
